Data: ChEMBL document CHEMBL4613258, “Distribution of Bibenzyls, Prenyl Bibenzyls, Bis-bibenzyls, and Terpenoids in the Liverwort Genus Radula” (J Nat Prod, 2020)
Values after ≈ are worked out from the molar mass of the structure shown.

Tests used:
[1] = tested on: KB; assay: Cytotoxicity against human KB cells; assay type: functional; conditions: read-out: ED50 (the source's name)
[2] = tested on: MRC5; assay: Cytotoxicity against human MRC5 cells; assay type: functional, cell-based
[3] = Inhibition of calmodulin (unknown origin); conditions: Homo sapiens
[4] = tested on: RAW264.7; assay: Inhibition of LPS-induced NO-production in mouse RAW264.7 cells at 4.5 to 20 uM incubated for 24 hrs by Griess reagent based assay relative to control; assay type: functional
[5] = tested on: Staphylococcus aureus; assay: […] activity against Staphylococcus aureus; assay type: functional
[6] = tested on: Candida albicans; assay: Antifungal activity against Candida albicans; assay type: functional
[7] = tested on: Trichophyton mentagrophytes; assay: Antifungal activity against Trichophyton mentagrophytes; assay type: functional
[8] = tested on: Trichostrongylus colubriformis; assay: Antiparasitic activity against Trichostrongylus colubriformis; assay type: functional, organism-based
[9] = molecular target: Vasopressin V1a receptor (Homo sapiens) (UniProt P37288); assay: Antagonist activity at vasopressin (unknown origin)
[10] = tested on: NCI-H1299; assay: Cytotoxicity against human NCI-H1299 cells; assay type: functional, cell-based
[11] = Antioxidant activity assessed as DPPH radical scavenging activity at 50 ug/ml relative to control; assay type: functional
[12] = tested on: Trichostrongylus colubriformis; assay: Antiparasitic activity against Trichostrongylus colubriformis assessed as inhibiton of parasite growth at 0.7 ug/ml relative to control; assay type: functional
[13] = molecular target: Cyclooxygenase (Homo sapiens, UniProt P35354+P23219); assay: Inhibition of COX (unknown origin); assay type: protein assay
[14] = tested on: Macrophage; assay: Inhibition of superoxide anion radical release in guinea pig macrophages; assay type: functional, cell-based; conditions: Cavia porcellus
[15] = Inhibition of DNA polymerase beta (unknown origin); parameters: species or system Homo sapiens

Vasopressin V1a receptor (Homo sapiens), sequence (P37288 whole entry, looked up): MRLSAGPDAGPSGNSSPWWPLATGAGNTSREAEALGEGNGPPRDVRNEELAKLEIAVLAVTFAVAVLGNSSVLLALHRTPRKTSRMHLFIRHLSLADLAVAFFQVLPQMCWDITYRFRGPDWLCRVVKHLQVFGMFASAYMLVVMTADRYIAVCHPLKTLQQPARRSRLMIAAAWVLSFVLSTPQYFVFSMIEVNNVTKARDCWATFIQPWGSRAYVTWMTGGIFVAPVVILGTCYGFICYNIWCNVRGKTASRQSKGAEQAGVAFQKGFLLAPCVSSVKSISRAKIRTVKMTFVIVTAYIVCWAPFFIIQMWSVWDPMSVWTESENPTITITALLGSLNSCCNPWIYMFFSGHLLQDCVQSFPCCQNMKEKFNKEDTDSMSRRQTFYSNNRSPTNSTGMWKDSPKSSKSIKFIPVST

Oc1cccc(CCc2ccc(Oc3cc(CCc4cccc(O)c4)ccc3O)cc2)c1
EC50 [1]: 12.5 µg/mL (≈ 29.3 µM)
IC50 [2]: 7.46 µg/mL (≈ 17.5 µM)

CC1=CCc2c(O)cc(CCc3ccccc3)cc2OC1
ID50 [3]: 95 µg/mL (≈ 339 µM)
inhibition (INH) [4]: 50%

CC(C)=CCC/C(C)=C/Cc1c(O)cc(O)cc1CCc1ccccc1
MIC [5]: 20 µg/mL (≈ 57.1 µM)
ID50 [3]: 4 µg/mL (≈ 11.4 µM)
inhibition (INH) [4]: 50%

COc1cccc(CCc2ccc(O)cc2)c1
MIC [6]: 125 µg/mL (≈ 548 µM)
MIC [7]: 62.5 µg/mL (≈ 274 µM)
IC50 [8]: 0.13 µg/mL (≈ 0.569 µM)

COc1cc(CCc2ccccc2)cc(O)c1CC=C(C)C
MIC [5]: 3 µg/mL (≈ 10.1 µM)
ID50 [9]: 27 µg/mL (≈ 91.1 µM)

CC(C)=CCc1c(CCc2ccccc2)cc(O)c(O)c1O
ID50 [3]: 3.5 µg/mL (≈ 11.7 µM)

CC1=CCc2c(cc(CCc3ccc(O)cc3)c(C(=O)O)c2O)OC1
ID50 [3]: 18.5 µg/mL (≈ 54.4 µM)

COC(=O)c1c(CCc2ccccc2)cc(O)c(CC=C(C)C)c1O
IC50 [10]: 5.1 µM

CC(C)=CCc1c(O)cc(O)cc1CCc1ccccc1
ID50 [3]: 4.9 µg/mL (≈ 17.4 µM)
Activity [11]: 28%

COc1ccc(CCc2cccc(OC)c2)cc1
inhibition at 0.7 µg/mL [12]: 30%

C=C(C)[C@H]1Cc2c(CCc3ccccc3)cc(O)c(O)c2O1
ID50 [3]: 2 µg/mL (≈ 6.75 µM)

CC1=CCc2c(O)cc(CCc3ccccc3O)cc2OC1
inhibition (INH) [4]: 50%

C[C@]12COc3cc(CCc4ccccc4)c(C(=O)O)c(O)c3[C@H]1C2
IC50 [13]: 39.7 µM
inhibition (INH) [4]: 50%
IC50 [14]: 6 µg/mL (≈ 18.5 µM)

Oc1cccc(CCc2ccc(Oc3cc(CCc4cccc(O)c4)cc(O)c3O)cc2)c1 [PERROTETTIN F]
EC50 [1]: 20 µg/mL (≈ 45.2 µM)
IC50 [15]: 97.5 to 114 µM
